Data set [1] is described as follows: GI S9 stability (Ex. Z), rat intestinal S9. The class given is in vitro ADME. The settings on record: pooled intestinal S9 fractions; rat intestinal S9, 1.0 mg/mL protein, 2 μM substrate, pH 7.4; read-out: GIS9 Rat T½ (per Ex. Z). Here is the method: (§1) Example Z: GI S9 stability data:
(§2) Stock solutions of test compounds in dimethyl sulfoxide (DMSO) having a final concentration of 10 mM were prepared and used in all experiments. Sekisui XenoTech (Kansas City, KS) provided pooled intestinal S9 fractions. All other chemicals were purchased from Sigma-Aldrich (St. Louis, MO) or VWR (West Chester, PA). Internal Standard/Quench (IS/Q) used to stop reactions was 100 nM labetalol in (by volume) methanol (10%) and acetonitrile (90%).
(§3) Stability in Intestinal S9 Fractions: Duplicate aliquots of test compound or positive control substrate were added to S9 stock diluted with phosphate buffered saline (137 mM NaCl, 2.7 mM KCl, 10 mM phosphate buffer), pH 7.4, to obtain a protein concentration of 1.0 mg/mL. The metabolic reactions were initiated by the addition of the substrates to the S9 reaction mixture to a final concentration of 2 μM. At 0, 10, 20, 30, 60 and 120 min, 25 μL aliquots of the reaction mixture were transferred to plates containing 225 μl of IS/Q solution. After quenching, the plates were centrifuged at 3000×g for 30 minutes. 150 μL aliquots of each supernatant were dried down then reconstituted with 300 μL water. Aliquots (10 μL) of the prepared samples were analyzed on a Thermo Q-Exactive mass spectrometer as described below.
(§4) Liquid Chromatography—Mass Spectrometry: Quantification of test compounds and control substrate was performed by analyte/internal standard peak area ratio (PAR) values measured on a Thermo Q-Exactive mass spectrometer coupled to a Dionex UltiMate 3000 HPLC with a Leap Technologies HTC PAL autosampler. The column used for analysis was a Waters Acquity BEH C18 (1.7 μm particle size, 2.1×50 mm). Mobile phase A consisted of 0.1% (v/v) formic acid in water. Mobile phase B consisted of 0.1% (v/v) formic acid in acetonitrile. Elution of analytes was achieved by a series of linear gradients varying the proportions of A and B. The mass spectrometer was calibrated on a weekly basis and mass tolerance of 5 ppm was used.
(§5) Metabolic stabilities in S9 fractions were determined by measuring the rates of disappearance of test compound and positive control substrate.
(§6) Data (% of substrate remaining) were plotted on a semi-log scale and fitted using an exponential decline model:
(§7) Where Ct—% of substrate remaining at time=t; C0—% of substrate remaining at time=0; t—time; T½—half-life The Half-life (T½) is determined by the following equation: […]
(§8) Assuming a first-order reaction, the slope (k) is extrapolated from the aforementioned plotted data.

Data set [2] can be described thus: GI S9 stability (Ex. Z), human intestinal S9. It is filed as in vitro ADME. The settings on record: pooled intestinal S9 fractions; human intestinal S9, 1.0 mg/mL protein, 2 μM substrate, pH 7.4; read-out: GIS9 Human T½ (per Ex. Z). Here is the method: as §1, §2, §3, §4, §5, §6, §7, §8
The subject of data set [3] is Respiratory syncytial virus recombinant with luciferase (RSV-Luc5) in NHBE cells. Put plainly: NHBE RSV-Luc5 384-well Assay (RSV FLUC NHBE 384 V2, Ex. W). The class given is cell-based. The conditions noted are these: human respiratory syncytial virus, 72 h, read-out: EC50 RSV FLUC NHBE 384 V2 (per Ex. W). From the text:
Example W: NHBE RSV-Luc5 384-well Assay (EC50 RSVFLUC NHBE-384)
Normal Human Bronchial Epithelial (NHBE) cells were purchased from Lonza (Walkersville, MD Cat #CC2540) and maintained in BEGM Bronchial Epithelial Cell Growth Medium BulletKit (Lonza CC-3170).
Cells were thawed, expanded, and were used for experiments at passage 2. Respiratory syncytial virus recombinant with luciferase (RSV-Luc5) (≥1×10^7 Infectious Units/mL (IU/mL) determined by TCID50) was purchased from Microbiologics (Saint Cloud, MN). Viral replication was determined in NHBE cells in the following manner.
Compounds are prepared in 100% DMSO in 384-well polypropylene plates (Greiner, Monroe, NC, Cat #784201) with 8 compounds per plate in grouped replicates of 4 at 10 serially diluted concentrations (1:3). The serially diluted compounds were transferred to low dead volume Echo plates (Labcyte, Sunnyvale, CA, Cat #LP-0200).
The test compounds were spotted to 384-well assay plates (Greiner, Monroe, NC, Cat#781091) at 200 nL per well using an Echo acoustic dispenser (Labcyte, Sunnyvale, CA). NHBE cells were harvested and suspended in BEGM Bronchial Epithelial Cell Growth Medium BulletKit and seeded to the pre-spotted assay plates at 5,000 cells per well in 30 μL. RSV-Luc5 virus was diluted in BEGM Bronchial Epithelial Cell Growth Medium BulletKit at 500,000 Infectious Units (IU) per mL and 10 μL per well was added to the assay plates containing cells and compounds, for an MOI of 1. The assay plates were incubated for 3 days at 37° C. and 5% CO2. At the end of incubation, One-Glo reagent (Promega, Madison, WI, Cat #E6120) was prepared. The assay plates and One-Glo reagent were equilibrated to room temperature for at least 15 minutes. 40 μL per well of One-Glo reagent was added and the plates were incubated at room temperature for 15 minutes before reading the luminescence signal on an EnVision multimode plate reader (Perkin Elmer, Waltham, MA). Remdesivir was used as positive control and DMSO was used as negative control. Values were normalized to the positive and negative controls (as 0% and 100% replication, respectively) and data was fitted using non-linear regression analysis by Gilead's dose response tool. The EC50 value for each compound was defined as the concentration reducing the viral replication by 50%.

One may read the EC50 as the concentration at which the effect is half-maximal.

Turning to `CC(C)C(=O)OC[C@@]1(C#N)O[C@@H](c2ccc3c(N)ncnn23)[C@H](O)[C@@H]1O` [Compound 1, ((2R,3S,4R,5S)-5-(4-aminopyrrolo[2,1-f][1,2,4]triazin-7-yl)-2-cyano-3,4-dihydroxytetrahydrofuran-2-yl)methyl isobutyrate], the half-life at 2 μM is 11 min in data set [1] and 38 min in data set [2]. Also, in data set [3], the EC50 came out at 14.4 µM.
For `N#C[C@]1(COC(=O)c2ccccc2)O[C@@H](c2ccc3c(N)ncnn23)[C@H](O)[C@@H]1O` [Compound 2, ((2R,3S,4R,5S)-5-(4-aminopyrrolo[2,1-f][1,2,4]triazin-7-yl)-2-cyano-3,4-dihydroxytetrahydrofuran-2-yl)methyl benzoate], in that order: 8 min, 27 min and 9.31 µM.
`CC(C)CC(=O)OC[C@@]1(C#N)O[C@@H](c2ccc3c(N)ncnn23)[C@H](O)[C@@H]1O` [Compound 3, ((2R,3S,4R,5S)-5-(4-aminopyrrolo[2,1-f][1,2,4]triazin-7-yl)-2-cyano-3,4-dihydroxytetrahydrofuran-2-yl)methyl 3-methylbutanoate]: the half-life at 2 μM in data set [1] is 12 min; in data set [2], 42 min. Further, the EC50 in data set [3] came to 8.55 µM.
With `CC(=O)OC[C@@]1(C#N)O[C@@H](c2ccc3c(N)ncnn23)[C@H](O)[C@@H]1O` [Compound 4, ((2R,3S,4R,5S)-5-(4-aminopyrrolo[2,1-f][1,2,4]triazin-7-yl)-2-cyano-3,4-dihydroxytetrahydrofuran-2-yl)methyl acetate], the half-life at 2 μM in data set [1] was found to be 9 min; in data set [2], 23 min. Also, the EC50 in data set [3] came out at 10.7 µM.
On to `CCC(=O)OC[C@@]1(C#N)O[C@@H](c2ccc3c(N)ncnn23)[C@H](O)[C@@H]1O` [Compound 5, ((2R,3S,4R,5S)-5-(4-aminopyrrolo[2,1-f][1,2,4]triazin-7-yl)-2-cyano-3,4-dihydroxytetrahydrofuran-2-yl)methyl propionate], for which the half-life at 2 μM in data set [1] came out at 10 min; in data set [2], 29 min. Moreover, in data set [3], the EC50 was determined as 7.78 µM.
For `CCCC(=O)OC[C@@]1(C#N)O[C@@H](c2ccc3c(N)ncnn23)[C@H](O)[C@@H]1O` [Compound 6, ((2R,3S,4R,5S)-5-(4-aminopyrrolo[2,1-f][1,2,4]triazin-7-yl)-2-cyano-3,4-dihydroxytetrahydrofuran-2-yl)methyl butyrate], the half-life at 2 μM in data set [1] is 4 min; in data set [2], 8 min. The half-maximal effective concentration (EC50) in data set [3] is 7.69 µM.
As to `N#C[C@]1(COC(=O)C2CC2)O[C@@H](c2ccc3c(N)ncnn23)[C@H](O)[C@@H]1O` [Compound 7, ((2R,3S,4R,5S)-5-(4-aminopyrrolo[2,1-f][1,2,4]triazin-7-yl)-2-cyano-3,4-dihydroxytetrahydrofuran-2-yl)methyl cyclopropanecarboxylate], the values for the half-life at 2 μM in data set [1] and in data set [2] were 26 min and 292 min, respectively. Further, the EC50 in data set [3] came to 10.7 µM.
`N#C[C@]1(COC(=O)C2CCC2)O[C@@H](c2ccc3c(N)ncnn23)[C@H](O)[C@@H]1O` [Compound 8, ((2R,3S,4R,5S)-5-(4-aminopyrrolo[2,1-f][1,2,4]triazin-7-yl)-2-cyano-3,4-dihydroxytetrahydrofuran-2-yl)methyl cyclobutanecarboxylate]: the half-life at 2 μM was found to be 2 min in data set [1] and 4 min in data set [2]. The EC50 in data set [3] amounted to 10.1 µM.
With `CC(C)C(=O)O[C@H]1[C@H](c2ccc3c(N)ncnn23)O[C@](C#N)(COC(=O)c2ccccc2)[C@H]1O` [Compound 22, ((2R,3S,4R,5S)-5-(4-aminopyrrolo[2,1-f][1,2,4]triazin-7-yl)-2-cyano-3-hydroxy-4-(isobutyryloxy)tetrahydrofuran-2-yl)methyl benzoate], in data set [3], the EC50 came to 11.3 µM.
`CC(=O)OC[C@@]1(C#N)O[C@@H](c2ccc3c(NC(=O)C(C)C)ncnn23)[C@H](O)[C@@H]1O` [Compound 23, ((2R,3S,4R,5S)-2-cyano-3,4-dihydroxy-5-(4-isobutyramidopyrrolo[2,1-f][1,2,4]triazin-7-yl)tetrahydrofuran-2-yl)methyl acetate]: the concentration for a half-maximal effect (EC50) in data set [3] worked out at 14.9 µM.
With `CC1(C(=O)OC[C@@]2(C#N)O[C@@H](c3ccc4c(N)ncnn34)[C@H](O)[C@@H]2O)CCC1` [Compound 24, ((2R,3S,4R,5S)-5-(4-aminopyrrolo[2,1-f][1,2,4]triazin-7-yl)-2-cyano-3,4-dihydroxytetrahydrofuran-2-yl)methyl 1-methylcyclobutane-1-carboxylate], the EC50 in data set [3] amounted to 10.8 µM.
The same measure, in the same setting: in the case of `CC(C)(C)CC(=O)Nc1ncnn2c([C@@H]3O[C@](C#N)(COC(=O)CC(C)(C)C)[C@@H](O)[C@H]3O)ccc12` [Compound 26, ((2R,3S,4R,5S)-2-cyano-5-(4-(3,3-dimethylbutanamido)pyrrolo[2,1-f][1,2,4]triazin-7-yl)-3,4-dihydroxytetrahydrofuran-2-yl)methyl 3,3-dimethylbutanoate] it was 26.6 µM.
Turning to `CCC(C)(C)CC(=O)OC[C@@]1(C#N)O[C@@H](c2ccc3c(N)ncnn23)[C@H](O)[C@@H]1O` [Compound 27, ((2R,3S,4R,5S)-5-(4-aminopyrrolo[2,1-f][1,2,4]triazin-7-yl)-2-cyano-3,4-dihydroxytetrahydrofuran-2-yl)methyl 3,3-dimethylpentanoate], the EC50 in data set [3] turned out to be 12.2 µM.
As for `CC(C)(CF)C(=O)OC[C@@]1(C#N)O[C@@H](c2ccc3c(N)ncnn23)[C@H](O)[C@@H]1O` [Compound 29, ((2R,3S,4R,5S)-5-(4-aminopyrrolo[2,1-f][1,2,4]triazin-7-yl)-2-cyano-3,4-dihydroxytetrahydrofuran-2-yl)methyl 3-fluoro-2,2-dimethylpropanoate], the EC50 in data set [3] was determined as 13 µM.
Regarding `[H]/N=c1/c2ccc([C@@H]3O[C@](C#N)(CO)[C@@H](O)[C@H]3O)n2ncn1COC(=O)C(C)C` [Compound 34, (7-((2S,3R,4S,5R)-5-cyano-3,4-dihydroxy-5-(hydroxymethyl)tetrahydrofuran-2-yl)-4-iminopyrrolo[2,1-f][1,2,4]triazin-3(4H)-yl)methyl isobutyrate], in data set [3], the EC50 stood at 39.1 µM.
For `CC[C@@H](C)C(=O)OC[C@@]1(C#N)O[C@@H](c2ccc3c(N)ncnn23)[C@H](O)[C@@H]1O` [Compound 37, ((2R,3S,4R,5S)-5-(4-aminopyrrolo[2,1-f][1,2,4]triazin-7-yl)-2-cyano-3,4-dihydroxytetrahydrofuran-2-yl)methyl (R)-2-methylbutanoate], the EC50 in data set [3] came out at 9.93 µM.
